# According to US6835846B2, “Aliphatic compounds, process for their preparation and their usage” (Maruha Corporation, priority 2000, dated 2004):
# Key:
# [1] = system: endothelial cell-neutrophil interaction; test: Anti-inflammatory tests using pseudo-blood vessel model (neutrophil transmigration and adhesion); assay type: cell-based, bovine; details: for neutrophil transmigration and adhesion: 0.1 and 1 microM compound, 10 microM AHOP in lower compartment, FIG. 4
# Experimental: Transwells were used, each consisting of an upper compartment separated from a lower compartment by a porous membrane. A single layer of bovine endothelial cells was cultured on the porous membrane at the bottom surface of the transwell upper compartment. A suspension of fluorescence-labeled neutrophils was added to the transwell upper compartment, and AHOP was suspended within the lower compartment to an end concentration of 0.1 to 10 microM. That is, a pseudo-blood vessel in vitro inflammation model was thus constructed in which the upper compartment and the lower compartment of the transwell were isolated from each other via the endothelial layer, and the upper compartment corresponded to the interior of a blood vessel, while the lower compartment corresponded to the site of inflammation outside the blood vessel. Measurements were made of the number of the neutrophils passing from the upper compartment into the lower compartment through the endothelial layer, and the number of the neutrophils adhering to the endothelial layer. […] That is, AHOP was considered to act as an inflammation-inducing substance.
# That is, the compound of Example 2 or 3 was added in an amount of 0.01 to 1 microM to the upper compartment or lower compartment of the transwell, and 10 microM AHOP was placed in the lower compartment to induce inflammation. As a control, inflammation was induced in the same way as above but without addition of any compounds of the invention.
# Measurements were made of the number of the neutrophils passing from the upper compartment into the lower compartment through the endothelial layer, and the number of the neutrophils adhering to the endothelial layer. A relative neutrophil count (%) was calculated from the following equation:
# Relative neutrophil count (%)=[number of neutrophils (passing and adhering) in the experimental group]/[number of neutrophils (passing and adhering) in the control]×100
# cancer cell strain F10 = details: F10 cells; AHOP concentration of 10^−8 to 10^−6 M; maximum; cited from earlier work
# Edg receptor = Edg receptor response test (intracellular Ca^2+ increase by AHOP in HL60 cells); assay type: cell-based; details: for concentration at which the Ca^2+ concentration increase by AHOP was dose-dependently suppressed / increase in the intracellular Ca^2+ concentration by the addition of AHOP: HL60 cells; for concentration at which the Ca^2+ concentration increase by AHOP was dose-dependently suppressed: AHOP 1 μM, FIG. 1; for increase in the intracellular Ca^2+ concentration by the addition of AHOP: test substance 30 μM, then AHOP 1 μM
# Excerpt: HL 60 cells were obtained from a cell bank, and subcultured for about 50 passages over a half-year period in accordance with the method described in BBRC '98, 263, p. 253 using an RPMI-1640 culture medium (Gibco) containing 10% fetal bovine serum to prepare a premyeloblastoma cell strain HL60 expressing Edg receptors on the cell surface. Using the premyeloblastoma cell strain HL60 expressing Edg receptors on the cell surface, the cell response of test substances was investigated. An increase in the intracellular Ca^2+ concentration was measured as an indicator of cell response. It is reported that when the Edg receptor on the HL60 cell surface is bound to AHOP, it phosphorylates G protein to activate IP3 kinase, whereafter the intracellular Ca^2+ concentration increases (FEBS Letter '96, 379, p. 260, BBRC '98, 253, p. 253). Thus, the intracellular Ca^2+ concentration serves as an indicator of Edg receptor response.
# A Ca^2+ chelating reagent, Fura-2AM, was taken into HL60 cells.
# A cell suspension (1.2 ml) was charged into a quartz cell, which was then mounted on a fluorometer LS50B (Perkin Elmer, for cell measurement). An excitation wavelength was alternately switched between 340 nm (exciting Fura-2 having chelated Ca^2+) and 380 nm (exciting unreacted Fura-2) at intervals of 0.5 milli second, and fluorescence intensity at 510 nm was measured.
# Each test substance was added at an end concentration of 30 μM by means of a microsyringe, and then fluorescence intensity was traced to investigate whether Ca^2+ would increase or not. It was also confirmed whether Ca^2+ would increase or not when AHOP (1 μM) was added after addition of the test substance. Through these tests, the AHOP antagonism of each substance was studied.
# Suramin, already confirmed to have antagonistic action, was used as a comparison. The experimental procedure was the same as described above, except that AHOP (1 μM) was added after addition of the test substance at varying concentration. An increase in the Ca^2+ concentration was evaluated by an increased Ca^2+ concentration (%) as a value relative to the increased Ca^2+ concentration in a negative control group (no drug added).
# [2] = system: myocardial infarction due to reperfusion following ligation of the rabbit coronary artery; test: Ligation-associated myocardial infarction model; assay type: in vivo
# Experimental: The compound of Example 2 was used as a test substance for investigating its effect on myocardial infarction due to reperfusion following ligation of the rabbit coronary artery. Male NZW rabbits (weighing 2.83 to 3.20 kg) were purchased from Kitayama Labes, Co. Ltd., and bred and raised under the conditions: room temperature 20-26° C., humidity 40-70%, and illumination time 12 hours/day (7-19:00). The animals were allowed food and water ad libitum, and quarantined and acclimatized for 2 weeks or more. Then, the animals in good health were used. The above rabbits were administered 10 mg/kg of the compound of Example 2 through the jugular vein under anesthesia, and then the compound of Example 2 was continuously infused in a dose of 6.9 micro g/kg/min. In a control group, physiological saline (hereinafter referred to as PS) was administered in the same manner as in the experimental group. Then, coronary artery was ligated for 30 minutes, whereafter the ligature was released for reperfusion, and the blood pressure in the carotid artery, the pulse rate and the number of arrhythmias were measured. The carotid arterial blood pressure and pulse rate were measured before administration, during continuous intravenous infusion, during the ligation period (15 minute later and 30 minutes later), and during reperfusion. The carotid arterial blood pressure was calculated as mean blood pressure. The number of arrhythmias was counted as the number of extrasystoles that appeared during the ligation period (for 30 minutes) or during reperfusion. After 3 hours of reperfusion, the heart was removed, and sliced into 6 pieces. The living tissues were stained with 2,3,5-triphenyltetrazolium […] (TTC), the area of the infarct due to ligation was measured, and the percent of the infarct with respect to the area of the left ventricle was calculated.
# Edg receptors = test: Competition experiments using ^3H-AHOP on HL60 cells; assay type: binding; details: for competition with ^3H-AHOP: HL60 cells, ^3H-AHOP 1 nM, unlabeled compound 10 nM, 30 nM or 100 nM, 30 minutes at 4° C.; for inhibition of binding of ^3H-AHOP (to HL60 cells): compound 1 nM, 3 nM and 10 nM, FIG. 2
# Experimental: The same premyeloblastoma cell strain HL60 expressing Edg receptors on the cell surface as used in Example 4 was used. The cells were harvested by centrifugation, then suspended in an F-12 culture medium (stored at 4° C., 10 ml), and carried into an RI laboratory. ^3H-AHOP (15 μCi/1 nM) at an end concentration of 1 nM, and an unlabeled compound (the compound of Example 2 or Example 3) at an end concentration of 10 nM, 30 nM or 100 nM were each added to 200 μl of the cell suspension (1×10^6 cells/ml F-12), and a binding test was conducted for 30 minutes at 4° C. (with occasional stirring). After centrifugation for 7 minutes at 12,000 rpm, the supernatant was rapidly (without damaging cell pellets) discarded with a micropipetter. The cell pellets were suspended in 1.5 ml of Ready Safe (Beckman), whereafter the suspension was transferred into a vial and measured for radioactivity by a liquid scintillation counter L2100 (Beckman).
# The compounds of Example 2 and Example 3 were subjected to the same competition experiments as described above, except that they were added at concentrations of 1 nM, 3 nM and 10 nM.
# [3] = system: vascular smooth muscle cells; test: Action on vascular smooth muscle growth (BrdU assay); assay type: cell-based; details: rat vascular smooth muscle cells, sphingosylphosphorylcholine 10 μM, 24 hours, FIG. 3
# Experimental: Thus, the actions of the compounds of Examples 2 and 3 on the growth of vascular smooth muscle cells were measured in the manner described below. Suramin confirmed to have Edg receptor antagonism was used as a positive control.
# The rat carotid intima was rubbed by ballooning, and a tissue fragment was cultured by explant culture. Two weeks later, vascular smooth muscle cells harvested were cultured in a DMEM culture medium (Gibco) containing 10% fetal bovine serum. The cultures were subcultured several times for stabilization, whereafter the subcultures were seeded at a cell density of 5×10^3 cells/cm^2 for use in experiments.
# Along with the growth factor sphingosylphosphorylcholine (10 μM), the compound of Example 2 or 3, or suramin was added to the cells, and 24 hours later, the cell density was measured by BrdU assay (Science '82, 218, p. 474, Cytometry '85, 6, p. 584).
# [4] = rabbit acute myocardial infarction models
# [5] = rabbit, 10 mg/kg jugular vein then 6.9 micro g/kg/min infusion
# [6] = rabbit, 10 mg/kg then 6.9 micro g/kg/min, ligation 15 min
# [7] = rabbit, 10 mg/kg then 6.9 micro g/kg/min, ligation 30 min
# [8] = rabbit, 10 mg/kg then 6.9 micro g/kg/min, reperfusion 180 min
# [9] = rabbit, baseline before administration
smiles,measurement,setting,value
"CCCCCCCCCCCCCC=CC(O)C(N)COP(=O)(O)O (stereo not drawn) [AHOP, 2-amino-3-hydroxy-4-octadecene-1-phosphate, reference compound]",transmigration through the endothelial layer and adhesion of the neutrophils (inflammation-inducing action),[1]; AHOP 10 microM in lower compartment,promoted significantly
same,suppression of migration,cancer cell strain F10,~80%
"CCCCCCCCCCCCCC[C@H](O)C(=O)N[C@H](CO)[C@@H](O)/C=C/CC/C=C(\C)CCCCCCCCC [Example 1, (4E,8E,2R,3S,2′S)-N-2′-hydroxyhexadecanoyl-9-methyl-4,8-octadecadiene-1,3-diol]",melting point,,62 to 63 °C
"CCCCCCCCCCCCCC[C@H](O)C(=O)N[C@H](CO)[C@@H](O)/C=C/CC/C=C(\C)CCCCCCCCC [Example 2, (4E,8E,2R,3S,2′S)-N-2′-hydroxyhexadecanoyl-9-methyl-4.8-octadecadiene-1,3-diol]",strength of the action in comparison with suramin (ED50),Edg receptor; ED50 for intracellular Ca^2+ increase,about 40 times
same,concentration at which the Ca^2+ concentration increase by AHOP was dose-dependently suppressed,Edg receptor,0.03 to 0.3 µM
same,increase in the intracellular Ca^2+ concentration by the addition of AHOP,Edg receptor,inhibited
same,ligation-associated decrease in pulse rate (in words),[2]; [4],tended to inhibit
same,number of arrhythmias due to ligation (in words),[2]; [4],reduce the number of arrhythmias due to ligation
same,percent area of the infarct (in words),[2]; [4],tendency toward decreasing
same,"Mean blood pressure, continued i.v. infusion",[2]; [5],74 ± 9 mmHg
same,"Pulse rate, continued i.v. infusion",[2]; [5],283 ± 10 beats/min
same,"Mean blood pressure, ligation 15 min",[2]; [6],59 ± 10 mmHg
same,"Pulse rate, ligation 15 min",[2]; [6],270 ± 9 beats/min
same,"Mean blood pressure, ligation 30 min",[2]; [7],66 ± 8 mmHg
same,"Pulse rate, ligation 30 min",[2]; [7],282 ± 4 beats/min
same,"Mean blood pressure, reperfusion 180 min",[2]; [8],68 ± 4 mmHg
same,"Pulse rate, reperfusion 180 min",[2]; [8],256 ± 10 beats/min
same,Infarct/left ventricle (percent area of the infarct),"[2]; rabbit, after 3 hours of reperfusion, TTC staining",14.0 ± 2.1%
same,"Mean blood pressure, before administration",[2]; [9],83 ± 4 mmHg
same,"Pulse rate, before administration",[2]; [9],301 ± 9 beats/min
same,"number of arrhythmias, reperfusion","[2]; rabbit, extrasystoles during reperfusion",17 ± 6
same,"number of arrhythmias, ligation","[2]; rabbit, extrasystoles during the ligation period (30 minutes)",12 ± 5
same,competition with ^3H-AHOP,Edg receptors,competitive with ^3H-AHOP
same,inhibition of binding of ^3H-AHOP (to HL60 cells),Edg receptors,Dose-dependent inhibition
same,concentrations at which vascular smooth muscle growth was inhibited,[3],0.3 to 3 µM
same,neutrophil transmigration and adhesion,[1],suppressed
"CCCCCCCCCCCCCCC(O)C(=O)N[C@@H](CO)[C@H](O)/C=C/CCCC(C)CCCCCCCCC (stereo partly drawn) [Example 3, (4E,2S,3R,2′RS)-N-2′-hydroxyhexadecanoyl-9-methyl-4-octadecene-1,3-diol]",concentration at which the Ca^2+ concentration increase by AHOP was dose-dependently suppressed,Edg receptor,0.3 to 3 µM
same,increase in the intracellular Ca^2+ concentration by the addition of AHOP,Edg receptor,inhibited
same,competition with ^3H-AHOP,Edg receptors,competitive with ^3H-AHOP
same,inhibition of binding of ^3H-AHOP (to HL60 cells),Edg receptors,Dose-dependent inhibition
same,concentrations at which vascular smooth muscle growth was inhibited,[3],1 to 10 µM
same,neutrophil transmigration and adhesion,[1],suppressed
same,melting point,,52 to 57 °C
